These results are taken from US20260217706A1, “HETEROCYCLIC COMPOUNDS, PREPARATION METHOD THEREFOR AND USE THEREOF” (GUANGZHOU YUFAN NANTU BIOTECHNOLOGIES CO., LTD, priority 2023, published 2026).

Assay [1] has as its target CBL-B protein (Homo sapiens, UniProt Q13191). As to the kind of experiment: CBL-B binding experiment (Streptavidin-Tb cryptate / Ligand L1 displacement). The conditions noted are these: 8 nM CBL-B protein, 25° C., 60 minutes; Ki=Relative IC50/2. The procedure, abridged: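 Buffer was 20 mM HEPES pH 7.5, 150 mM NaCl, 0.01% Triton X-100, 0.5 mM TCEP and BSA. Ten-point compound dilutions were incubated with 8 nM CBL-B for 60 min at 25° C., then read by luminescence after another 60 min at room temperature. IC50 came from a four-parameter fit, with Ki = relative IC50/2.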

Assay [2] has as its system anti-CD3 activated human PBMCs. The assay is described as follows: Effect of compounds on the level of IL-2 secretion by anti-CD3 activated human PBMCs (IL-2 ELISA). The conditions noted are these: compound concentration at which fold change in IL-2 = 5; hPBMCs, CD3 antibody 2 μg/mL, 48 h, compound from 3 μM. Format: cell-based. The method in brief:
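Human PBMCs were preincubated 1 h, then exposed to compound (10 points, 3-fold from 3 μM final) with anti-CD3 at 2 μg/mL for 48 h at 37° C. Supernatant IL-2 was measured by ELISA as fold change over DMSO.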
In general terms: ELISA stands for enzyme-linked immunosorbent assay.

Sequence of CBL-B protein (Q13191 whole entry): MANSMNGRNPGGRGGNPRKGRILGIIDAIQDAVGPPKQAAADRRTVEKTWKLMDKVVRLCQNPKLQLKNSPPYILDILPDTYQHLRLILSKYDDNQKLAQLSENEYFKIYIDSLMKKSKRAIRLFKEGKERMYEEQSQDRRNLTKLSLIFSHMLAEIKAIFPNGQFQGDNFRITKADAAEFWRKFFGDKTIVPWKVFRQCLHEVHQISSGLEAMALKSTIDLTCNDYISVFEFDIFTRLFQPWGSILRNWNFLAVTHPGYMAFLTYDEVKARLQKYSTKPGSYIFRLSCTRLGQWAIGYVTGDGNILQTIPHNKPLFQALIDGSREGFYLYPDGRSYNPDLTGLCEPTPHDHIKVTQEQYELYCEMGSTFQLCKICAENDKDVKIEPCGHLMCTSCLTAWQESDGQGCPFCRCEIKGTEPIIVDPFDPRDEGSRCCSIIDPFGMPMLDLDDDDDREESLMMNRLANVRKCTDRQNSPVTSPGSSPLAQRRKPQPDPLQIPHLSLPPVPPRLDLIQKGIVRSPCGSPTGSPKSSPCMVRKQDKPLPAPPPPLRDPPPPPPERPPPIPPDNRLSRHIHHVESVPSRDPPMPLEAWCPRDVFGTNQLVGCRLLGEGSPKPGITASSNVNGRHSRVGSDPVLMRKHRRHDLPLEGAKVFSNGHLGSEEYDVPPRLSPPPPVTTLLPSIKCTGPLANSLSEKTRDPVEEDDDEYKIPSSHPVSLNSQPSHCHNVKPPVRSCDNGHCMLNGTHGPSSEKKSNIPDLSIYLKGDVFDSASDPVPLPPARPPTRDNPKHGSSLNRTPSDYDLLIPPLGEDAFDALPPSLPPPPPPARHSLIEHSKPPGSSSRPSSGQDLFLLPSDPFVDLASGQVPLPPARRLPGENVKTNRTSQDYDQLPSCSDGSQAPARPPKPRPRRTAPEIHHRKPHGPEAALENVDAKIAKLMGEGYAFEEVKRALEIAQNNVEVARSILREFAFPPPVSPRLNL

As usually defined, the Ki is the dissociation constant of the complex between target and ligand, obtained from inhibition or displacement. A high value points to weaker binding. Compound `C[C@H]1CCCN(Cc2cc3c(C4CC4)cn(-c4cccc([C@@H](c5nncn5C)C5CCC5)c4)c(=O)c3[nH]2)C1` [Compound T013, 6-(3-((S)-cyclobutyl(4-methyl-4H-1,2,4-triazol-3-yl)methyl)phenyl)-4-cyclopropyl-2-(((S)-3-methylpiperidin-1-yl)methyl)-1,6-dihydro-7H-pyrrolo[2,3-c]pyridin-7-one] came in with a Ki in assay [1] of less than 50 nM. Moreover, the “IL-2 CFC=5/nM” value in assay [2] is recorded as less than 500 nM.
In the same order, the values of `Cn1cnnc1C1(c2cccc(-n3cc(C(F)(F)F)c4cc(CN5CC6CCC(C6)C5)[nH]c4c3=O)c2)CCC1` [Compound T053, 2-(3-azabicyclo[3.2.1]octan-3-ylmethyl)-6-[3-[1-(4-methyl-1,2,4-triazol-3-yl)cyclobutyl]phenyl]-4-(trifluoromethyl)-1H-pyrrolo[2,3-c]pyridin-7-one] are less than 50 nM and less than 500 nM.
Consider `Cn1cnnc1[C@]1(c2cccc(-n3cc(C(F)(F)F)c4cc(CN5CC[C@H](F)C5)[nH]c4c3=O)c2)C[C@H](C)C1` [Compound T047, 2-(((S)-3-fluoropyrrolidin-1-yl)methyl)-6-(3-((1s,3R)-3-methyl-1-(4-methyl-4H-1,2,4-triazol-3-yl)cyclobutyl)phenyl)-4-(trifluoromethyl)-1,6-dihydro-7H-pyrrolo[2,3-c]pyridin-7-one], for which, in assay [1], the Ki was less than 50 nM. Moreover, in assay [2], the “IL-2 CFC=5/nM” value was less than 500 nM.
In the same order, the values of `Cn1cnnc1C1(c2cccc(-n3cc(C(F)(F)F)c4cc(CN5CCC[C@H](O)C5)[nH]c4c3=O)c2)CCC1` [Compound T038, 2-[[(3S)-3-hydroxy-1-piperidyl]methyl]-6-[3-[1-(4-methyl-1,2,4-triazol-3-yl)cyclobutyl]phenyl]-4-(trifluoromethyl)-1H-pyrrolo[2,3-c]pyridin-7-one] are less than 50 nM and less than 500 nM.
In turn, `C[C@H]1CCCN(Cc2cc3c(C(F)(F)F)cn(-c4cccc(C5(c6nncn6C)CCC5)c4)c(=O)c3[nH]2)C1` [Compound T033, 2-[[(3S)-3-methyl-1-piperidyl]methyl]-6-[3-[1-(4-methyl-1,2,4-triazol-3-yl)cyclobutyl]phenyl]-4-(trifluoromethyl)-1H-pyrrolo[2,3-c]pyridin-7-one] returned a Ki in assay [1] of less than 50 nM. Further, the “IL-2 CFC=5/nM” value in assay [2] is less than 500 nM.
In assay [1], `Cn1cnnc1C1(c2cccc(-n3cc(C(F)(F)F)c4cc(CNC5(C)CCC5)[nH]c4c3=O)c2)CCC1` [Compound T009, 2-[[(1-methylcyclobutyl)amino]methyl]-6-[3-[1-(4-methyl-1,2,4-triazol-3-yl)cyclobutyl]phenyl]-4-(trifluoromethyl)-1H-pyrrolo[2,3-c]pyridin-7-one] registered a Ki of less than 50 nM. Moreover, in assay [2], the “IL-2 CFC=5/nM” value was less than 500 nM.
For `C[C@H]1CCCN(Cc2cc3c(C4CC4)cn(-c4cccc(C5(Cc6nncn6C)CC(F)(F)C5)c4)c(=O)c3[nH]2)C1` [Compound T077, 4-cyclopropyl-6-[3-[3,3-difluoro-1-[(4-methyl-1,2,4-triazol-3-yl)methyl]cyclobutyl]phenyl]-2-[[(3S)-3-methyl-1-piperidyl]methyl]-1H-pyrrolo[2,3-c]pyridin-7-one], the Ki in assay [1] is less than 50 nM. The “IL-2 CFC=5/nM” value in assay [2] is on record as less than 500 nM.
In the same order, the values of `C[C@H]1CCCN(Cc2cc3c(C(F)(F)F)cn(-c4cccc(C5([C@H](F)c6nncn6C)CC(F)(F)C5)c4)c(=O)c3[nH]2)C1` [Compound T120, 6-(3-(3,3-difluoro-1-((S)-fluoro(4-methyl-4H-1,2,4-triazol-3-yl)methyl)cyclobutyl)phenyl)-2-(((S)-3-methylpiperidin-1-yl)methyl)-4-(trifluoromethyl)-1,6-dihydro-7H-pyrrolo[2,3-c]pyridin-7-one] are less than 50 nM and less than 500 nM.
In the same order, the values of `CCN(C)Cc1cc2c(C(F)(F)F)cn(-c3cccc(C4(c5nncn5C)CCC4)c3)c(=O)c2[nH]1` [Compound T002, 2-((ethyl(methyl)amino)methyl)-6-(3-(1-(4-methyl-4H-1,2,4-triazol-3-yl)cyclobutyl)phenyl)-4-(trifluoromethyl)-1,6-dihydro-7H-pyrrolo[2,3-c]pyridin-7-one] are less than 50 nM and less than 500 nM.
With `CC[C@H]1C[C@@](c2cccc(-n3cc(C(F)(F)F)c4cc(CN5CCC[C@H](C)C5)[nH]c4c3=O)c2)(c2nncn2C)C1` [Compound T092, 6-(3-((1r,3R)-3-ethyl-1-(4-methyl-4H-1,2,4-triazol-3-yl)cyclobutyl)phenyl)-2-(((S)-3-methylpiperidin-1-yl)methyl)-4-(trifluoromethyl)-1,6-dihydro-7H-pyrrolo[2,3-c]pyridin-7-one], the Ki in assay [1] is less than 50 nM. Further, the “IL-2 CFC=5/nM” value in assay [2] was less than 500 nM.
For `CO[C@H]1C[C@](c2cccc(-n3cc(C(F)(F)F)c4cc(CN5CCC[C@H](C)C5)[nH]c4c3=O)c2)(c2nncn2C)C1` [Compound T135, 6-(3-((1r,3S)-3-methoxy-1-(4-methyl-4H-1,2,4-triazol-3-yl)cyclobutyl)phenyl)-2-(((S)-3-methylpiperidin-1-yl)methyl)-4-(trifluoromethyl)-1,6-dihydro-7H-pyrrolo[2,3-c]pyridin-7-one], in that order: less than 50 nM and less than 500 nM.
For `CO[C@H]1C[C@](c2cccc(-n3cc(C(F)(F)F)c4cc(CNCCC5CC5)[nH]c4c3=O)c2)(c2nncn2C)C1` [Compound T154, 2-(((2-cyclopropylethyl)amino)methyl)-6-(3-((1r,3r)-3-methoxy-1-(4-methyl-4H-1,2,4-triazol-3-yl)cyclobutyl)phenyl)-4-(trifluoromethyl)-1,6-dihydro-7H-pyrrolo[2,3-c]pyridin-7-one], in that order: less than 50 nM and less than 500 nM.
In the same order, the values of `Cn1cnnc1C1(c2cccc(-n3cc(C(F)(F)F)c4cc(CN5CCCC(C(F)F)C5)[nH]c4c3=O)c2)CCC1` (racemic) [Compound T114, 6-[3-[1-(4-methyl-1,2,4-triazol-3-yl)cyclobutyl]phenyl]-2-[[rac-(3S)-3-(difluoromethyl)-1-piperidyl]methyl]-4-(trifluoromethyl)-1H-pyrrolo[2,3-c]pyridin-7-one] are less than 50 nM and less than 500 nM.
Consider `CCN(Cc1cc2c(C(F)(F)F)cn(-c3cccc([C@]4(c5nncn5C)C[C@@H](OC)C4)c3)c(=O)c2[nH]1)CC(C)C` [Compound T149, 2-((ethyl(isobutyl)amino)methyl)-6-(3-((1s,3s)-3-methoxy-1-(4-methyl-4H-1,2,4-triazol-3-yl)cyclobutyl)phenyl)-4-(trifluoromethyl)-1,6-dihydro-7H-pyrrolo[2,3-c]pyridin-7-one], for which the Ki in assay [1] is less than 50 nM. The “IL-2 CFC=5/nM” value in assay [2] is reported as less than 500 nM.
In the same order, the values of `Cn1cnnc1C1(c2cccc(-n3cc(C(F)(F)F)c4cc(CNCCCC(F)(F)F)[nH]c4c3=O)c2)CCC1` [Compound T091, 6-[3-[1-(4-methyl-1,2,4-triazol-3-yl)cyclobutyl]phenyl]-2-[(4,4,4-trifluorobutylamino)methyl]-4-(trifluoromethyl)-1H-pyrrolo[2,3-c]pyridin-7-one] are less than 50 nM and less than 500 nM.
In the same order, the values of `CCCN(Cc1cc2c(C(F)(F)F)cn(-c3cccc([C@]4(c5nncn5C)C[C@@H](C)C4)c3)c(=O)c2[nH]1)C(C)C` [Compound T029, 2-((isopropyl(propyl)amino)methyl)-6-(3-((1s,3s)-3-methyl-1-(4-methyl-4H-1,2,4-triazol-3-yl)cyclobutyl)phenyl)-4-(trifluoromethyl)-1,6-dihydro-7H-pyrrolo[2,3-c]pyridin-7-one] are less than 50 nM and less than 500 nM.
In the same order, the values of `C[C@@H]1CN(Cc2cc3c(C(F)(F)F)cn(-c4cccc(C5(c6nncn6C)CCC5)c4)c(=O)c3[nH]2)CCC1(F)F` [Compound T111, (R)-2-((4,4-difluoro-3-methylpiperidin-1-yl)methyl)-6-(3-(1-(4-methyl-4H-1,2,4-triazol-3-yl)cyclobutyl)phenyl)-4-(trifluoromethyl)-1,6-dihydro-7H-pyrrolo[2,3-c]pyridin-7-one] are less than 50 nM and less than 500 nM.
In turn, `C[C@H]1CCCN(Cc2cc3c(C(F)(F)F)cn(-c4cc(C#N)cc([C@]5(c6nncn6C)C[C@H](C)C5)c4)c(=O)c3[nH]2)C1` [Compound T122, 3-((1r,3S)-3-methyl-1-(4-methyl-4H-1,2,4-triazol-3-yl)cyclobutyl)-5-(2-(((S)-3-methylpiperidin-1-yl)methyl)-7-oxo-4-(trifluoromethyl)-1,7-dihydro-6H-pyrrolo[2,3-c]pyridin-6-yl)benzonitrile] came in with a Ki in assay [1] of less than 50 nM. Further, in assay [2], the “IL-2 CFC=5/nM” value was less than 500 nM.
Compound `Cn1cnnc1C1(c2cccc(-n3cc(C(F)(F)F)c4cc(CN5CC[C@@H]6C[C@@H]6C5)[nH]c4c3=O)c2)CCC1` [Compound T025, 2-[[(1 S,6S)-3-azabicyclo[4.1.0]heptan-3-yl]methyl]-6-[3-[1-(4-methyl-1,2,4-triazol-3-yl)cyclobutyl]phenyl]-4-(trifluoromethyl)-1H-pyrrolo[2,3-c]pyridin-7-one] showed a Ki in assay [1] of less than 50 nM. In assay [2], the “IL-2 CFC=5/nM” value is listed as less than 500 nM.
Regarding `C[C@H]1CCCN(Cc2cc3c(C(F)(F)F)cn(-c4cccc([C@]5(c6nncn6C)C[C@@H](OC(F)(F)F)C5)c4)c(=O)c3[nH]2)C1` [Compound T130, 6-(3-((1s,3R)-1-(4-methyl-4H-1,2,4-triazol-3-yl)-3-(trifluoromethoxy)cyclobutyl)phenyl)-2-(((S)-3-methylpiperidin-1-yl)methyl)-4-(trifluoromethyl)-1,6-dihydro-7H-pyrrolo[2,3-c]pyridin-7-one], the Ki in assay [1] was less than 50 nM. Also, in assay [2], the “IL-2 CFC=5/nM” value was less than 500 nM.
